Results reported in patent US20030157026A1, “Photodynamic diagnosis and therapy for insulin-dependent diabetes mellitus” (priority 2001, published 2003).

Key:
Format in all cases: in vivo
[1] = system: macrophages having infiltrated the inflammatory sites of Langerhans islets; assay: Uptake of conventional PDT photosensitizers into macrophages in the pancreas of a mammal with IDDM; conditions: no test described
[2] = system: macrophages having infiltrated the islets of Langerhans; assay: Test Example 1: fluorescence localisation in frozen pancreatic sections after i.v. administration to BB rats with onset of IDDM; conditions: 5 mg/kg via tail vein, pancreas excised 1 hour after administration, 664 nm laser (same result with 405 nm UV / 672 nm fluorescence)
Text: From 60 days after birth, the BB rats were examined every day for the urine sugar level and blood sugar level by using GLUTEST SENSOR (Sanwa Kagaku Co., Ltd., Japan). […] The excised pancreases were frozen in dry ice/acetone, to prepare frozen pancreatic sections of 5 μm in thickness. The frozen pancreatic sections were irradiated with a semiconductor laser light of 664 nm (Matsushita Industrial Equipment Co., Ltd., Japan). An image of fluorescence as emitted by mono-L-aspartyl chlorin e6 in the frozen pancreatic section was observed under a fluorescence microscope equipped with a notched filter for cutting 664 nm wavelength (made by Carl Zeiss). […]
Further, the places of the pancreas section which indicated the previously observed fluorescence of mono-L-aspartyl chlorin e6 were confirmed to be consistent with the sites where the macrophages were present in the pancreas sections. […] When a method comprising irradiation of a UV ray of a wavelength of 405 nm and observing a fluorescence at 672 nm with a cut filter for cutting light rays of wavelengths of not more than 600 nm was used for the observation of the fluorescence of mono-L-aspartyl chlorin e6, there could again be obtained the same result as that obtained in the above-described method comprising irradiation of the 664-nm semiconductor laser.

[3] = system: BB rats with onset of IDDM; assay: Test Example 3: photodynamic therapy of IDDM in BB rats (664-nm laser light), survival rate
Protocol: From 60 days after birth, BB rats (16 rats per group) were examined every day for the urine sugar level and blood sugar level, to confirm the time of the onset of IDDM. […] Photodynamic therapy of IDDM was thus conducted once, and thereafter, the survival rate (%) of the BB rats were evaluated during the breeding for subsequent […].
On the other hand, the survival rate (%) of the control group of rats (untreated) was about 65% on Day 6 after the start of the test, and all rats had died on Day 22 after the start of the test.
The survival rate (%) of rats under test was evaluated by the following equation: [formula]

[4] = BB rats treated by the photodynamic therapy

`CCOC(=O)C1=Cc2c3nc(cc4nc(cc5[n-]c(cc6[n-]c2c(C)c6CC)c(C)c5CC)C(C)=C4CC)[C@@H](C)[C@]13CC.[Cl-].[Cl-].[Sn]` (racemic) [rostaporfin] was tested, and the “uptake into macrophages when each singly administered” value (from here on “uptake into macrophages”) [1] was “selectively be uptaken by and into the macrophages”.
For `C=CC1=C(C)C2=CC3=C(/C=C/NO)C(C)(O)C(=CC4=NC(=CC5=NC(=CC1=N2)C(C)=C5CCC(=O)N[C@@H](CC(=O)[O-])C(=O)[O-])C(CCC(=O)N[C@@H](CC(=O)[O-])C(=O)[O-])=C4C)N3.[Na+].[Na+].[Na+].[Na+]` (stereo partly drawn) [ATX-S10], the “uptake into macrophages” value [1] was “selectively be uptaken by and into the macrophages”.
In the case of `C=Cc1c(C)c2cc3nc(c(CC(=O)O)c4[nH]c(cc5nc(cc1[nH]2)C(C)=C5CC)c(C)c4C(=O)O)[C@@H](CCC(=O)O)[C@@H]3C` [chlorin e6], the “uptake into macrophages” value [1] is reported as “selectively be uptaken by and into the macrophages”.
`C=Cc1c(C)c2cc3nc(c(CC(=O)N[C@@H](CC(=O)[O-])C(=O)[O-])c4[nH]c(cc5nc(cc1[nH]2)C(C)=C5CC)c(C)c4C(=O)[O-])[C@@H](CCC(=O)[O-])[C@@H]3C.[Na+].[Na+].[Na+].[Na+]` [mono-L-aspartyl chlorin e6] was tested, and the “uptake and accumulation of the administered photosensitizer (fluorescence image vs macrophage antibody staining)” value [2] was “uptaken into and accumulated specifically in the macrophages having infiltrated the islets of Langerhans”, the “blood sugar level compared with control group” value [3, 4] was “blood sugar level had changed at slightly lower stages” and the “progress of Langerhans islet inflammation (pancreatic insulitis)” value [3, 4] was “pancreatic insulitis was suppressed by the PDT”. For the same compound, the insulin production ([3]; BB rats treated by the photodynamic therapy vs control) was “tendency to delay the disappearance of insulin production”.
`CC(=O)[O-].CC(=O)[O-].CCc1c(CC)c2cc3nc(cnc4cc(OCCOCCOCCOC)c(OCCOCCOCCOC)cc4ncc4nc(cc1[n-]2)C(CCCO)=C4C)C(C)=C3CCCO.O.[Lu+3]` [motexafin lutetium] was tested, and the “uptake into macrophages” value [1] was “selectively be uptaken by and into the macrophages”.
For porfimer sodium, the “uptake into macrophages” value [1] was “selectively be uptaken by and into the macrophages”.
“tetrasodium salt of mono-L-aspartyl chlorin e6” was tested, and the long-term survivors ([3]; BB rats, 5 mg/kg i.v. plus 664-nm laser, all control rats had died on Day 22) was “several rats surviving still after Day 35”, the “survival curve compared with untreated control group” value ([3]; BB rats, 5 mg/kg i.v., 24 h later 664-nm laser 50 J/cm^2, once) was “evident prolongation of their survival curve” and the “survival rate (%) on Day 6 after the start of the therapy” value ([3]; BB rats, 5 mg/kg i.v., 24 h later 664-nm laser 50 J/cm^2 transcutaneously, once, untreated control about 65%) was 100%.
